Results reported in patent US20250332173A1, “COMPOUNDS AND METHODS FOR MODULATING NUCLEIC ACID SPLICING” (REMIX THERAPEUTICS INC., priority 2021, published 2025).
Where two headings read alike, the source gives them in different places.

What was measured:
[1] = tested on: HTT; test: HiBiT protein abundance assay, HTT HiBiT K562 cell line; assay type: cell-based, human; conditions: HiBiT K562 cell line, 24 hours, top dose 10 μM; read-out: Effect on protein abundance, HTT (IC50 category)
How it was run: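 K562 knock-in lines with endogenous HiBiT-tagged target, 10,000 cells/well in IMDM + FBS, treated 24 h at 37° C with 10-point 3-fold dilutions (top 10 μM final; DMSO ≤0.25%). Lytic Nano-Glo HiBiT luminescence normalized to untagged K562 baseline and DMSO controls; IC50 = concentration giving 50% abundance via four-parameter fit.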

[2] = tested on: MYB mRNA; test: RT-qPCR splicing assay, MYB canonical junction (CJ) and alternative junction (AJ) mRNA; assay type: cell-based, human; conditions: Homo sapiens; for AC50: increase in MYB alternative junction (AJ) mRNA, read-out: MYB AJ AC50
How it was run: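 A673 cells (normalized to PPIA) or K562 cells (normalized to GAPDH or GUSB) were treated 24 h at 37 °C with an 11-point 3-fold dilution series, top 10 uM, DMSO ≤0.25%. Cell lysates went to one-step RT-qPCR measuring canonical- and alternative-junction MYB or HTT transcripts.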

[3] = Table 5 panel, canonical junction qPCR, compound concentration having 50% response in CJ decrease, read-out: MYB IC50 (decrease in CJ mRNA levels)
[4] = decrease in MYB canonical junction (CJ) mRNA, RT-qPCR, read-out: MYB CJ IC50

IC50 [1]	IC50 [2, 3]	IC50 [2, 4]	SMILES	AC50 ([2]; RT-qPCR)
1000 to 10000 nM	100 to 1000 nM	< 100 nM	Cc1cn2cc(-c3cc(F)c4c(=O)n([C@H]5CCNC[C@@H]5F)cnc4c3)cc(F)c2n1 (relative stereo) [Compound 341, 5-fluoro-7-(8-fluoro-2-methylimidazo[1,2-a]pyridin-6-yl)-3-(trans-3-fluoropiperidin-4-yl)quinazolin-4(3H)-one]	100 to 1000 nM
100 to 1000 nM	< 100 nM	< 100 nM	Cc1cn2cc(-c3cc(F)c4c(=O)n([C@H]5CCN[C@@H](C)C5)cnc4c3)cc(F)c2n1 (relative stereo) [Compound 343, cis-5-fluoro-7-(8-fluoro-2-methylimidazo[1,2-a]pyridin-6-yl)-3-(2-methylpiperidin-4-yl)quinazolin-4(3H)-one]	< 100 nM
< 100 nM	< 100 nM	< 100 nM	Cc1cn2nc(-c3cc(F)c4c(=O)n([C@H]5CCNC6(CC6)C5)cnc4c3)cc(C)c2n1 (single isomer, unassigned) [Compound 357]	< 100 nM
> 10000 nM	> 10000 nM	> 10000 nM	CN1CCN(c2ccc3c(=O)n(-c4ccc5nn(C)cc5c4)cnc3c2)CC1 [Compound 152]	1000 to 10000 nM
> 10000 nM	1000 to 10000 nM	> 10000 nM	Cn1cc2cc(-n3cnc4cc(N5CCNCC5)ccc4c3=O)ccc2n1 [Compound 153]	> 10000 nM
1000 to 10000 nM	1000 to 10000 nM	1000 to 10000 nM	Cc1cc(-c2ccc3c(=O)n(C4CCN(C)CC4)cnc3c2)cc2cn(C)nc12 [Compound 156]	1000 to 10000 nM
1000 to 10000 nM	1000 to 10000 nM	1000 to 10000 nM	Cc1cc(-c2ccc3c(=O)n(C4CC(C)(C)NC(C)(C)C4)cnc3c2)cc2cn(C)nc12 [Compound 157]	1000 to 10000 nM
< 100 nM	100 to 1000 nM	< 100 nM	CCN1CCC(n2ncc3cc(-c4cc(C)c5nc(C)cn5n4)ccc3c2=O)CC1 [Compound 266]	100 to 1000 nM
100 to 1000 nM	1000 to 10000 nM	< 100 nM	Cc1cn2nc(-c3ccc4c(c3)CCN(C3CCNC(C)(C)C3)C4=O)cc(C)c2n1 (stereo not shown) [Compound 267]	1000 to 10000 nM
1000 to 10000 nM	1000 to 10000 nM	100 to 1000 nM	Cc1cn2nc(-c3ccc4c(c3)CCN(C3CCN(C)CC3)C4=O)cc(C)c2n1 [Compound 268]	1000 to 10000 nM
> 10000 nM	> 10000 nM	> 10000 nM	Cc1cn2nc(-c3ccc4c(c3)CCN(C3CCNC3)C4=O)cc(C)c2n1 (stereo not shown) [Compound 269]	> 10000 nM
1000 to 10000 nM	1000 to 10000 nM	1000 to 10000 nM	CCN1CCC(N2CCc3cc(-c4cc(C)c5nc(C)cn5n4)ccc3C2=O)CC1 [Compound 270]	1000 to 10000 nM
1000 to 10000 nM	1000 to 10000 nM	1000 to 10000 nM	Cc1cn2nc(-c3ccc4c(=O)n(C5CCN(C)C5)ncc4c3)cc(C)c2n1 (stereo not shown) [Compound 271]	1000 to 10000 nM
< 100 nM	< 100 nM	100 to 1000 nM	Cc1cn2nc(-c3ccc4c(=O)n([C@@H]5CCN[C@H](C)C5)ncc4c3)cc(C)c2n1 [Compound 272]	< 100 nM
< 100 nM	< 100 nM	< 100 nM	Cc1cn2nc(-c3ccc4c(=O)n(C5CCNC6(CC6)C5)ncc4c3)cc(C)c2n1 (stereo not shown) [Compound 274]	< 100 nM
< 100 nM	< 100 nM	< 100 nM	Cc1cn2cc(-c3ccc4c(=O)n(C5CCNCC5)ccc4c3)cc(F)c2n1 [Compound 276]	< 100 nM
100 to 1000 nM	100 to 1000 nM	100 to 1000 nM	Cc1cn2nc(-c3ccc4c(=O)n([C@@H]5CCN(C)[C@H](C)C5)ncc4c3)cc(C)c2n1 [Compound 277]	100 to 1000 nM
< 100 nM	100 to 1000 nM	100 to 1000 nM	Cc1cn2nc(-c3ccc4c(=O)n([C@H]5CCN(C)[C@H](C)C5)ncc4c3)cc(C)c2n1 [Compound 278]	100 to 1000 nM
< 100 nM	< 100 nM	100 to 1000 nM	Cc1cn2nc(-c3ccc4c(=O)n(C5CCNC(C)(C)C5)ncc4c3)cc(C)c2n1 (stereo not shown) [Compound 279]	< 100 nM
1000 to 10000 nM	1000 to 10000 nM	1000 to 10000 nM	Cc1cn2nc(-c3ccc4c(c3)CCN([C@@H]3CCN[C@H](C)C3)C4=O)cc(C)c2n1 [Compound 281]	1000 to 10000 nM

IC50 [1]	IC50 [2, 3]	IC50 [2, 4]	SMILES	AC50 ([2]; RT-qPCR)
> 10000 nM	> 10000 nM	> 10000 nM	Cc1cn2nc(-c3ccc4c(c3)CCN(C3CCN(C)C3)C4=O)cc(C)c2n1 (stereo not shown) [Compound 282]	> 10000 nM
< 100 nM	100 to 1000 nM	100 to 1000 nM	Cc1cn2nc(-c3ccc4c(=O)n(C5CCCNCC5)ncc4c3)cc(C)c2n1 (stereo not shown) [Compound 283]	100 to 1000 nM
> 10000 nM	> 10000 nM	> 10000 nM	O=c1c2ccc(-c3cn[nH]c3)cc2ncn1C1CCNCC1 [Compound 284]	> 10000 nM
1000 to 10000 nM	100 to 1000 nM	1000 to 10000 nM	Cc1nc2c(F)cc(-c3ccc4c(=O)n(C5CCNCC5)cnc4c3)cc2s1 [Compound 285]	100 to 1000 nM
1000 to 10000 nM	1000 to 10000 nM	1000 to 10000 nM	Cc1cn2cc(-c3ccc4c(=O)n(C5CCNCC5)cnc4c3)nc2c(C)n1 [Compound 286]	1000 to 10000 nM
100 to 1000 nM	100 to 1000 nM	100 to 1000 nM	Cc1cn2nc(-c3ccc4c(=O)n(C5CCNCC5)cnc4c3)nc2c(C)n1 [Compound 287, 7-{6,8-dimethyl-[1,2,4]triazolo[1,5-a]pyrazin-2-yl}-3-(piperidin-4-yl)quinazolin-4-one]	100 to 1000 nM
1000 to 10000 nM	1000 to 10000 nM	1000 to 10000 nM	Cc1cn2nc(-c3ccc4c(=O)n(C5CCN(C)CC5)cnc4c3)nc2c(C)n1 [Compound 288, 7-{6,8-dimethyl-[1,2,4]triazolo[1,5-a]pyrazin-2-yl}1-3-(1-methylpiperidin-4-yl)quinazolin-4-one]	1000 to 10000 nM
100 to 1000 nM	100 to 1000 nM	100 to 1000 nM	Cc1cn2nc(-c3ccc4c(=O)n(C5CCN(C)CC5)cnc4c3F)cc(C)c2n1 [Compound 290]	100 to 1000 nM
100 to 1000 nM	100 to 1000 nM	< 100 nM	Cc1cn2cc(-c3ccc4c(=O)n(C5CCNCC5)cnc4c3)cc(Cl)c2n1 [Compound 291]	100 to 1000 nM
100 to 1000 nM	100 to 1000 nM	100 to 1000 nM	Cc1cn2cc(-c3ccc4c(=O)n(C5CCNCC5)cnc4c3)cc(C)c2n1 [Compound 292]	100 to 1000 nM
100 to 1000 nM	100 to 1000 nM	100 to 1000 nM	Cc1cn2cc(-c3ccc4c(=O)n([C@@H]5CCN[C@@H](C)C5)cnc4c3)cc(F)c2n1 [Compound 293]	100 to 1000 nM
100 to 1000 nM	100 to 1000 nM	100 to 1000 nM	Cc1cn2cc(-c3ccc4c(=O)n(C5CCN[C@@H](C)C5)cnc4c3)cc(F)c2n1 (stereo partly shown) [Compound 294]	100 to 1000 nM
1000 to 10000 nM	100 to 1000 nM	100 to 1000 nM	Cc1cn2cc(-c3ccc4c(=O)n([C@@H]5CCN[C@H](C)C5)cnc4c3)cc(F)c2n1 [Compound 295]	100 to 1000 nM
100 to 1000 nM	< 100 nM	< 100 nM	Cc1cn2cc(-c3ccc4c(=O)n([C@H]5CCN[C@H](C)C5)cnc4c3)cc(F)c2n1 [Compound 296]	< 100 nM
1000 to 10000 nM	100 to 1000 nM	100 to 1000 nM	Cc1cn2cc(-c3ccc4c(=O)n(C5CCNCC5)cnc4c3)ncc2n1 [Compound 297]	100 to 1000 nM
100 to 1000 nM	100 to 1000 nM	100 to 1000 nM	Cc1cn2nc(-c3ccc4c(=O)n(C5CCNCC5)cnc4c3)cc2c(C)n1 [Compound 298]	100 to 1000 nM
> 10000 nM	> 10000 nM	> 10000 nM	CN1CCC(n2cnc3cc(-c4cn[nH]c4)ccc3c2=O)CC1 [Compound 299]	> 10000 nM
100 to 1000 nM	1000 to 10000 nM	100 to 1000 nM	Cc1nc2c(F)cc(-c3ccc4c(=O)n(C5CCN(C)CC5)cnc4c3)cc2o1 [Compound 300]	1000 to 10000 nM
1000 to 10000 nM	1000 to 10000 nM	1000 to 10000 nM	Cc1nc2c(F)cc(-c3ccc4c(=O)n(C5CCN(C)CC5)cnc4c3)cc2s1 [Compound 301]	1000 to 10000 nM
1000 to 10000 nM	1000 to 10000 nM	1000 to 10000 nM	Cc1cn2cc(-c3ccc4c(=O)n(C5CCN(C)CC5)cnc4c3)nc2c(C)n1 [Compound 302]	1000 to 10000 nM

SMILES	IC50 [1]	IC50 [2, 3]	IC50 [2, 4]	AC50 ([2]; RT-qPCR)
Cn1cc2cc(-n3cnc4cc(C5=CCNCC5)ccc4c3=O)ccc2n1 [Compound 158]	> 10000 nM	> 10000 nM	> 10000 nM	> 10000 nM
CN1CC=C(c2ccc3c(=O)n(-c4ccc5nn(C)cc5c4)cnc3c2)CC1 [Compound 159]	> 10000 nM	> 10000 nM	> 10000 nM	> 10000 nM
Cc1cn2nc(-c3ccc4c(=O)n([C@@H]5C[C@H]6CC[C@@H](C5)N6)ncc4c3)cc(C)c2n1 [Compound 280]	100 to 1000 nM	100 to 1000 nM	100 to 1000 nM	100 to 1000 nM
